Structures can show the parent of a compound that is named as a salt. Where two headings read alike, the source gives them in different places.
Molecular target: T1, HIV protease (Human immunodeficiency virus type 1 group M subtype B, UniProt P04585)
T1 construct: A third viral enzyme known as protease then cleaves the polyproteins
Experiment: Enzymatic Assay for Determining the Inhibition Constant (Ki) of Synthetic Compounds Targeting the HIV Protease (fluorometric FRET assay)
Format: biochemical
How it was run: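 Ki obtained via the Henderson equation from enzyme velocities with and without compound, accounting for substrate concentration and Km. Activity followed by FRET fluorescence from cleavage of a substrate flanked by EDANS donor and DABCYL acceptor.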

[1] = Table 1, compounds of formula I, read-out: Ki (anti-protease activity)

Structure (SMILES)	Ki [nM]	also measured
COC(=O)N[C@@H](Cc1ccccc1)C(=O)NCCCC[C@@H](CO)N(CC(C)C)S(=O)(=O)c1ccc(N)cc1 [Example 177, (2S,2′S) 2-N-(4-Aminobenzenesulfonyl)-2-N-isobutyl-6-N-(N′α-methoxycarbonyl-S-phenylalanyl)-2,6-diaminohexanol]	6.6	
Cc1ccc(S(=O)(=O)N(CC(C)C)[C@H](CO)CCCCNC(=O)[C@H](Cc2ccc(F)cc2)NC(=O)OC(C)(C)C)cc1 [Example 140, (2S,2′S) 2-N-Isobutyl-2-N-(4-methylbenzenesulfonyl)-6-N-(N′α-tert-butoxycarbonyl-S-4-fluorophenylalanyl)-2,6-diaminohexanol]	4.2	
COc1ccc(S(=O)(=O)N(CC2CCCC2)[C@H](CO)CCCCNC(=O)[C@@H](N)Cc2c[nH]c3ccccc23)cc1 [Example 152, (2S,2′S) 2-N-Cyclopentylmethyl-2-N-(4-methoxybenzenesulfonyl)-6-N-(S-tryptophanyl)-2,6-diaminohexanol Trifluoroacetic Acid Salt]		Ki [1]: 12 nM
Cc1ccc(S(=O)(=O)N(CC(C)C)[C@@H](CCCCNC(=O)[C@H](CO)NC(=O)OCC2c3ccccc3-c3ccccc32)C(=O)O)cc1 [Example 36, Nα-Isobutyl-Nα-(4-methylbenzenesulfonyl)-Nε-[N′α-(9-fluorenylmethoxycarbonyl)-L-seryl]-L-lysine]		Ki (Anti-protease activity of Ne-amino acid substituted L-lysine derivatives and analogs of formula I, read-out: Ki): 162 nM
COc1ccc(S(=O)(=O)N(CC(C)C)[C@H](CO)CCCCNC(=O)[C@@H](N)Cc2c[nH]c3ccccc23)cc1 [Example 146, (2S,2′S) 2-N-Isobutyl-2-N-(4-methoxybenzenesullfonyl)-6-N-(S-tryptophanyl)-2,6-diaminohexanol Trifluoroacetic Acid Salt]		Ki [1]: 15 nM
Cc1ccc(S(=O)(=O)NC(Cc2c[nH]c3ccccc23)C(=NC#N)NCCCCC(C(=O)O)N(CC(C)C)S(=O)(=O)c2ccc(C)cc2)cc1 [Example 103, Nα-Isobutyl-Nα-(4-methylbenzenesulfonyl)-Nε-[N′α-(4-methylbenzenesulfonyl)-L-tryptophanyl-N-cyanoamidine]-L-lysine]	1.1	
Cc1ccc(S(=O)(=O)N[C@@H](CCC(N)=O)C(=O)NCCCC[C@@H](C(=O)O)N(CC(C)C)S(=O)(=O)c2ccc(C)cc2)cc1 [Example 34, Nα-Isobutyl-Nα-(4-methylbenzenesulfonyl)-Nε-[N′α-(4-methylbenzenesulfonyl)-L-glutaminyl]-L-lysine]	95	
Cc1ccc(S(=O)(=O)N[C@@H](Cc2c[nH]c3ccccc23)C(=O)NCCCC[C@@H](CO)N(CC(C)C)S(=O)(=O)c2ccc(C)cc2)cc1 [Example 97, (2S,2′S) 2-N-Isobutyl-2-N-(4-methylbenzenesulfonyl)-6-N-[N′α-(4-methylbenzenesulfonyl)-S-tryptophanyl]-2,6-diaminohexanol]	3.6	
Cc1ccc(S(=O)(=O)NCC(=O)NCCCC[C@@H](C(=O)O)N(CC(C)C)S(=O)(=O)c2ccc(C)cc2)cc1 [Example 21, Nα-Isobutyl-Nα-(4-methylbenzenesulfonyl)-Nε-[N′α-(4-methylbenzenesulfonyl)-glycyl]-L-lysine]	21	
COc1ccc(CN(CC(=O)NCCCC[C@@H](CO)N(CC(C)C)S(=O)(=O)c2ccc(C)cc2)c2ccccc2)cc1 [Example 175, (2S) 2-N-Isobutyl-2-N-(4-methylbenzenesulfonyl)-6-N-[N′α-(4-methoxybenzyl)-N′α-phenylglycyl]-2,6-diaminohexanol]	6.3	
CC(=O)N[C@@H](Cc1c[nH]c2ccccc12)C(=O)NCCCC[C@@H](CO)N(CC(C)C)S(=O)(=O)c1ccc(C)cc1 [Example 131, (2S,2′S) 2-N-Isobutyl-2-N-(4-methylbenzenesulfonyl)-6-N-(N′α-acetyl-S-tryptophanyl)-2,6-diaminohexanol]	3	
Cc1ccc(CSC[C@H](N)C(=O)NCCCC[C@@H](C(=O)O)N(CC(C)C)S(=O)(=O)c2ccc(C)cc2)cc1 [Example 90, Nα-Isobutyl-Nα-(4-methylbenzenesulfonyl)-Nε-[S-(4-methylbenzyl)-L-cysteinyl]-L-lysine]	29	
Cc1ccc(S(=O)(=O)N[C@H](C(=O)NCCCC[C@@H](C(=O)O)N(CC(C)C)S(=O)(=O)c2ccc(C)cc2)c2ccccc2)cc1 [Example 27, Nα-Isobutyl-Nα-(4-methylbenzenesulfonyl)-Nε-[N′α-(4-methylbenzenesulfonyl)-L-phenylglycyl]-L-lysine]	11	
CC(C)CN([C@H](CO)CCCCNC(=O)[C@H](Cc1c[nH]c2ccccc12)NS(=O)(=O)c1ccccc1)S(=O)(=O)c1ccc(N)cc1 [Example 167, (2S,2′S) 2-N-(4-Aminobenzenesulfonyl)-2-N-isobutyl-6-N-(N′α-benzenesulfonyl-S-tryptophanyl)-2,6-diaminohexanol]	1.5	
Cc1ccc(S(=O)(=O)N(CC(C)C)[C@H](CO)CCCCNC(=O)[C@H](Cc2ccc(CNC(=O)OCC3c4ccccc4-c4ccccc43)cc2)NC(=O)OC(C)(C)C)cc1 [Example 144, (2S,2′S) 2-N-Isobutyl-2-N-(4-methylbenzenesulfonyl)-6-N-[N′α-tert-butoxycarbonyl-S-4-(9-fluorenemethoxycarbonylaminomethyl)phenylalanyl]-2,6-diaminohexanol]		Ki [1]: > 300 nM
Cc1ccc(S(=O)(=O)N(CC(C)C)[C@H](CO)CCCCNC(=O)[C@H](Cc2cccc(F)c2)NC(=O)OC(C)(C)C)cc1 [Example 139, (2S,2′S) 2-N-Isobutyl-2-N-(4-methylbenzenesulfonyl)-6-N-(N′α-tert-butoxycarbonyl-S-3-fluorophenylalanyl)-2,6-diaminohexanol]	4.1	
Cc1ccc(S(=O)(=O)N[C@@H](CCCCN)C(=O)NCCCC[C@@H](C(=O)O)N(CC(C)C)S(=O)(=O)c2ccc(C)cc2)cc1 [Example 39, Nα-Isobutyl-Nα-(4-methylbenzenesulfonyl)-Nε-[N′α-(4-methylbenzenesulfonyl)-L-lysyl]-L-lysine]	> 300	
Cc1ccc(S(=O)(=O)N(CC(C)C)[C@@H](CCCCNC(=O)[C@H](Cc2c[nH]c3ccccc23)NS(=O)(=O)c2ccccc2)C(=O)O)cc1 [Example 4, Nα-Isobutyl-Nα-(4-methylbenzenesulfonyl)-Nε-(N′α-benzenesulfonyl-L-tryptophanyl)-L-lysine]	1	
Cc1ccc(S(=O)(=O)N[C@@H](CO)C(=O)NCCCC[C@@H](C(=O)O)N(CC(C)C)S(=O)(=O)c2ccc(C)cc2)cc1 [Example 32, Nα-Isobutyl-Nα-(4-methylbenzenesulfonyl)-Nε-[N′α-(4-methylbenzenesulfonyl)-L-seryl]-L-lysine]	93	
Cc1ccc(S(=O)(=O)N(CC(C)C)[C@H](CO)CCCCNC(=O)[C@@H]2Cc3c([nH]c4ccccc34)CN2C(=O)OC(C)(C)C)cc1 [Example 141, (2S,2′S) 2-N-Isobutyl-2-N-(4-methylbenzenesulfonyl)-6-N-(N′α-tert-butoxycarbonyl-S-1,2,3,4-tetrahydronorharman-3-carbonyl)-2,6-diaminohexanol]	38	
CC(C)CN(C(CO)CCCCNC(=O)C(Cc1c[nH]c2ccccc12)NC(=O)c1ccccc1)S(=O)(=O)c1ccc(N)cc1 [Example 186, (2S,2′S) 2-N-(4-Aminobenzenesulfonyl)-2-N-isobutyl-6-N-(N′α-benzoyl-S-tryptophanyl)-2,6-diaminohexanol]	1.7	
Cc1ccc(S(=O)(=O)N(CC(C)C)[C@@H](CCCCNC(=O)[C@H](Cc2ccccc2)NC(=O)OCc2ccccc2)C(=O)O)cc1 [Example 31, Nα-Isobutyl-Nα-(4-methylbenzenesulfonyl)-Nε-(N′α-benzyloxycarbonyl-L-phenylalanyl)-L-lysine]	2.3	
Cc1ccc(S(=O)(=O)N(CC(C)C)[C@@H](CCCCNC(=O)[C@H](CC2CCCCC2)NC(=O)OCC2c3ccccc3-c3ccccc32)C(=O)O)cc1 [Example 37, Nα-Isobutyl-Nα-(4-methylbenzenesulfonyl)-Nε-[N′α-(9-fluorenylmethoxycarbonyl)-L-cyclohexylalanyl]-L-lysine]	28	
Cc1ccc(S(=O)(=O)N[C@@H](Cc2c[nH]c3ccccc23)C(=O)NCCCC[C@@H](C(=O)O)N(CC(C)C)S(=O)(=O)c2ccc(C)cc2)cc1 [Example 2, Nα-Isobutyl-Nα-(4-methylbenzenesulfonyl)-Nε-[N′α-(4-methylbenzenesulfonyl)-L-tryptophanyl]-L-lysine]	0.513	
COC(=O)[C@H](CCCCNC(=O)[C@H](Cc1c[nH]c2ccccc12)NS(=O)(=O)c1ccc(C)cc1)N(CC(C)C)S(=O)(=O)c1ccc(C)cc1 [Example 69, Nα-Isobutyl-Nα-(4-methylbenzenesulfonyl)-Nε-[N′α-(4-methylbenzenesulfonyl)-L-tryptophanyl]-L-lysine Methyl Ester]	> 300	
Cc1ccc(S(=O)(=O)N[C@@H](CC(N)=O)C(=O)NCCCC[C@@H](C(=O)O)N(CC(C)C)S(=O)(=O)c2ccc(C)cc2)cc1 [Example 61, Nα-Isobutyl-Nα-(4-methylbenzenesulfonyl)-Nε-[N′α-(4-methylbenzenesulfonyl)-L-asparagyl]-L-lysine]	296	
Cc1ccc(S(=O)(=O)N(CC(C)C)[C@@H](CCCCNC(=S)[C@H](Cc2ccccc2)NC(=S)c2ccccc2)C(=O)O)cc1 [Example 77, Nα-Isobutyl-Nα-(4-methylbenzenesulfonyl)-Nε-(N′α-thiobenzoyl-L-thiophenylalanyl)-L-lysine]	212	
CC(C)CN([C@H](CO)CCCCNC(=O)[C@H](Cc1c[nH]c2ccccc12)NC(=O)C(C)C)S(=O)(=O)c1ccc(N)cc1 [Example 184, (2S,2′S) 2-N-(4-Aminobenzenesulfonyl)-2-N-isobutyl-6-N-(N′α-isobutyryl-S-tryptophanyl)-2,6-diaminohexanol]	1.6	
COc1ccc(S(=O)(=O)N(CC(C)C)[C@H](CO)CCCCNC(=O)[C@H](Cc2c[nH]c3ccccc23)NC(=O)OC(C)(C)C)cc1 [Example 147, (2S,2′S) 2-N-Isobutyl-2-N-(4-methoxybenzenesulfonyl)-6-N-(N′α-tert-butoxycarbonyl-S-tryptophanyl)-2,6-diaminohexanol]	16	
